From article PMC7915732, “Screening of Yeast Display Libraries of Enzymatically Treated Peptides to Discover Macrocyclic Peptide Ligands” (International Journal of Molecular Sciences, 2021)

Columns and labels:
transglutaminase = assay: Flow cytometry detection of c-myc tag after extracellular transglutaminase treatment; settings: 1 μM transglutaminase overnight, 37 °C, PBS pH 6, three independent replicates
Text: In this study, we adopted the sequence […] as a model linear precursor to evaluate the efficiency of transglutaminase-mediated cyclization on the surface of yeast cells; this peptide, in fact, served as model substrate in prior work on transglutaminase-mediated cyclization. Specifically, we designed a plasmid construct to express the lead sequence […] as an Aga2p fusion on the surface of Saccharomyces cerevisiae cells. Together with the model peptide, the Aga2p fusion construct contains c-myc and HA epitope tags as well as a tobacco etch virus (TEV) protease signal recognition sequence (Figure 1B). […]
(§1) Yeast cells displaying linear peptide precursors (model sequence […] or 8-mer library sequences) fused to specific epitope tags (HA and c-myc tags for model sequence […]; HA and His tags for library cells) were induced. […] The non-fluorescently conjugated primary antibodies were detected by labeling with a 1:250 dilution of goat-anti-chicken antibody (Immunoreagents, Raleigh, NC, USA) or donkey-anti-rabbit (Immunoreagents, Raleigh, NC, USA) labeled with Alexa Fluor 488 (green), respectively. […] At least 50,000 cells from each sample were analyzed using a MACSQuant VYB Cytometer (Miltenyi Biotec, Bergisch Gladbach, Germany)).

TEV protease [1] = assay: Cleavage of yeast-displayed peptide by TEV protease, flow cytometry; settings: TEV 3 μM overnight, 37 °C, PBSCl pH 8, three independent replicates
Text: We further evaluated the alleged cyclization yield by assessing the extent of cleavage of transglutaminase-treated vs. untreated peptide constructs from yeast cells by TEV protease. The latter recognizes the sequence ENLYFQ-G/S and cleaves between the Q and G/S residues. We hypothesize that peptide modifications—such as cyclization –inhibit TEV protease from interacting with its recognition sequence included between the construct’s His tag and HA tag. Accordingly, yeast cells expressing the linear peptide precursor—that were either treated with transglutaminase or left untreated—were incubated with TEV protease, and the binding of antibodies targeting the HA and c-myc tags was quantified via flow cytometry. […]
as §1, with “Germany)). […]” for “Germany)).”

[2] = target: bovine serum albumin (BSA) (Bos taurus, UniProt P02769); assay: Yeast surface titration with biotinylated BSA (selectivity control); format: binding; settings: Figure S7A, intracellular transglutaminase route
Method: (§2) The binding affinity of cyclo[E-[…]-K] for N-terminal YAP and WW-YAP was characterized using a yeast surface titration method developed in prior work. Specifically, yeast cells displaying (putative) cyclo[E-[…]-K] were incubated with soluble, biotinylated N-terminal YAP or WW-YAP to generate binding isotherms; the fraction of cell surface fusions bound by the biotinylated target protein was quantified via immunofluorescent detection of SA-PE (Figure 4). The resulting data were fit to a monovalent binding isotherm to estimate the binding affinity (KD) of the peptide (Table 1). […]
(§3) Figure 4 Surface titrations of (A) yeast cells displaying (putative) cyclo[E-[…]-K] with the WW domain of YAP (WW-YAP, black circles) and bovine serum albumin (BSA, green diamonds); (B) yeast cells displaying the linear peptide sequence […] with WW-YAP; (C) yeast cells displaying (putative) cyclo[E-[…]-K] with N-terminal-YAP (N-YAP, black circles) and BSA (green diamonds); and (D) yeast cells displaying the linear peptide sequence […] with N-YAP. The binding of each biotinylated protein was detected using SA-PE followed by flow cytometry analysis. […]
(§4) Yeast cells encoding the linear precursor […] were induced. […] The cells were then analyzed by flow cytometry as described in [21, 50]. A SA-PE only labeling was also carried out to quantify the mean background fluorescence. […]

N-terminal YAP (N-YAP) = target: T1, N-terminal YAP (N-YAP) (Homo sapiens, UniProt P46937); assay: Yeast surface titration (yeast-displayed peptide, soluble biotinylated N-terminal YAP); format: binding; settings: linear peptide, no transglutaminase
T1 construct: which affords the expression of N-terminal YAP (AAs 1–291); made in house; host or cells: Rosetta E. coli
Method: as §2, §3, §4

[3] = target: T2, WW domains of YAP (WW-YAP) (Homo sapiens, UniProt P46937); assay: Yeast surface titration (yeast-displayed peptide, soluble biotinylated WW-YAP); format: binding; parameters: key to KD (apparent) WW-YAP: N/D: not detectable; L/B: low binding; settings: for binding to WW-YAP (in words): linear peptide, no transglutaminase
T2 construct: which affords the expression of the WW domains of YAP (AAs 165–271); made in house; host or cells: Rosetta E. coli
Method: The binding affinity of cyclo[E-[…]-K] for N-terminal YAP and WW-YAP was characterized using a yeast surface titration method developed in prior work. Specifically, yeast cells displaying (putative) cyclo[E-[…]-K] were incubated with soluble, biotinylated N-terminal YAP or WW-YAP to generate binding isotherms; the fraction of cell surface fusions bound by the biotinylated target protein was quantified via immunofluorescent detection of SA-PE (Figure 4). The resulting data were fit to a monovalent binding isotherm to estimate the binding affinity (KD) of the peptide (Table 1). Binding isotherms were also generated using BSA (Figure 4A,C), to characterize the binding selectivity, as well as for cells displaying the linear precursor ([…]), to evaluate the effect of cyclization on the binding activity of the identified peptide sequence (Figure 4B,D).
as §3
Yeast cells encoding the linear precursor […] were induced. […] The cells were then analyzed by flow cytometry as described in [21, 50]. A SA-PE only labeling was also carried out to quantify the mean background fluorescence. […] The values of KD were estimated using Equation (1):(1) F=Fmax[L]o/KD+[L]o where F is the background subtracted mean fluorescence intensity, [L]o is the concentration of soluble target protein used for labeling, and Fmax is the background subtracted fluorescence intensity when surface-saturation is obtained. Fmax was set as the highest value of fluorescence observed in each data set. […]

TEV protease [4] = assay: TEV protease cleavage, intracellular transglutaminase co-expression, flow cytometry; settings: 48 h induction
Text: Screening of Yeast Display Libraries of Enzymatically Treated
Peptides to Discover Macrocyclic Peptide Ligands
John Bowen, John Schneible, Kaitlyn Bacon, Collin Labar, Stefano Menegatti and Balaji M. Rao […]
Plasmid construction for intracellular […]
peptide precursors on the surface […]
expression of the transglutaminase en-zyme downstream of the Gal10 promoter. […]
and inserted between the AgeI and KpnI sites of […]
under the direction of the Gal1 promoter and transglutaminase under the direction of the Gal10 promoter. […]
a 6 base pair oligonucleotide encoding the Kex2 recognition site between the pro and active transglutaminase sequence
50 ng of purified PCR product was treated with 1 […]
perature followed by incubation
DNA was then treated for 5 min at room
(New England Biolabs) prior to transformation into electrocompe- […]
introduce a point mutation […]
with an alanine (A) residue
, followed by the treatments with […]
prior to kinase, ligase, and DpnI treatment
Evaluation of intracellular transglutaminase […]
induction, a subset of the cells was treated with TEV protease as described in Section 2.3 to evaluate the extent of putative peptide cyclization. […] Induced cells that were not exposed to TEV protease were also analyzed for comparison. […]
S.1.5. […] The enrich-ment of peptide binders targeting N-terminal YAP between the screening rounds was evaluated via flow cytometry. […]

T2 sequence (P46937 165-271): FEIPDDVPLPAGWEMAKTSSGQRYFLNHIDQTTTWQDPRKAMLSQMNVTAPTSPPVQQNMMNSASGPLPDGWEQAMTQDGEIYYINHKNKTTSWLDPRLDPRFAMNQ
Sequence of bovine serum albumin (BSA) (P02769 25-607): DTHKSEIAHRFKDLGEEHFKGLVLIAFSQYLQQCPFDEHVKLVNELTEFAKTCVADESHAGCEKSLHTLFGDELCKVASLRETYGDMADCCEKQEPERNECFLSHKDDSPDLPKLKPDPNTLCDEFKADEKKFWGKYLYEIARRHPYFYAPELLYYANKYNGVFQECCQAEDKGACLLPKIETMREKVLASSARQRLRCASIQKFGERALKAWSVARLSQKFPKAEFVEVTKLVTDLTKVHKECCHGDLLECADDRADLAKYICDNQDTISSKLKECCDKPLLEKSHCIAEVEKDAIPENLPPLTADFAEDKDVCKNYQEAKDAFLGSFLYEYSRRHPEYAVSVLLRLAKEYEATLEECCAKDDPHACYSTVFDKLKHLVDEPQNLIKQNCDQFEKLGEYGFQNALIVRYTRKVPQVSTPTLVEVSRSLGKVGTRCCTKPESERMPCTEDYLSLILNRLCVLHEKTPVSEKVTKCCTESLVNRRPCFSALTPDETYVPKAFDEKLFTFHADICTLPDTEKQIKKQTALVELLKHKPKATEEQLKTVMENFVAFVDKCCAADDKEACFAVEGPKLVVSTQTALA
T1 sequence (P46937 1-291): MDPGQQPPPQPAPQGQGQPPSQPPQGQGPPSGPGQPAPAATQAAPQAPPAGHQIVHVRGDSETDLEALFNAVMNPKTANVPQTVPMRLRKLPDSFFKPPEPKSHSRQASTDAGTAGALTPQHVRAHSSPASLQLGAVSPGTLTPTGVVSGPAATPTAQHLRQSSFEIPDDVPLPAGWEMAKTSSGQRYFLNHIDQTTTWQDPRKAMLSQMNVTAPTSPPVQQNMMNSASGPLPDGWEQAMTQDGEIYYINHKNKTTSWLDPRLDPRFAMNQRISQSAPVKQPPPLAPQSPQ

Substance: ALQSGSRGGG-EQKLISEEDL [model peptide]
- c-myc signal change on transglutaminase treatment (transglutaminase): a notable decrease in the c-myc signal
- c-myc level after TEV protease, transglutaminase-treated (TEV protease [1]; transglutaminase-treated): only a slight decrease
- c-myc level after TEV protease, no transglutaminase (TEV protease [1]; untreated with transglutaminase): significant decrease in fluorescence

Substance: cyclo[E-VQCRGKGEQ-K] (sidechain bridge or staple) [putative cyclic peptide from intracellular transglutaminase library]
- binding specificity N-terminal YAP vs. BSA (in words) [2]: selective binder for N-terminal YAP

Substance: QLYLAYPAHK
- binding to N-terminal YAP (in words) (N-terminal YAP (N-YAP)): shown to bind to N-terminal YAP
- binding to WW-YAP (in words) ([3]; listed as linear form of the peptide): not WW-YAP
- binding to WW-YAP (in words) ([3]; listed as linear precursors): much lower binding affinity
- KD (apparent) WW-YAP ([3]; monovalent binding isotherm, 1 h at 4 °C, 0.1% PBSA, SA-PE flow cytometry, average of three independent replicates ± one standard error): L/B

Substance: ALASGSRGGG [active TG, Q-to-A lead/c-myc]
- c-myc detection after TEV protease (intracellular constructs) (TEV protease [4]): significantly lower binding
